Key:
[1] = test system: pUC18 plasmid; assay: Photocleavage of pUC18 plasmid DNA assayed by agarose gel electrophoresis; type: biochemical
Description: FIG. 10A-C. (a) Schematic representations of imaged agarose gel showing the photocleavage of pUC18 plasmid by [{(bpy)2Ru(dpp)}2RhCl2]^5+ in the absence of molecular oxygen. Lane 1 λ molecular weight standard, lanes 2 and 3 plasmid controls, lanes 4 and 6 plasmid incubated at 37° C. (2 h) in the presence of [(bpy)2Ru(dpp)]^2+ and [{(bpy)2Ru(dpp)}2RhCl2]^5+, respectively (1:5metal complex/base pair), lanes 5 and 7 plasmid irradiated at λ≧475 nm for 10 min in the presence of [(bpy)2Ru(dpp)]^2+ and [{(bpY)2Ru(dpp)}2RhCl2]^5+, respectively. (b) Lanes 1 and 2 plasmid controls, lanes 3 and 5 plasmid incubated at 37° C. (3 h) in the presence of [{(bpy)2Ru(bpm)}2RhCl2]^5+ and [{(bpy)2Ru(dpp)}2IrCl2]^5+, respectively, lanes 4 and 6 plasmid irradiated at λ≧475 nm for 10 min in the presence of [{(bpy)2Ru(bpm)}2RhCl2]^5+ and [{(bpy)2Ru(dpp)}2IrCl2]^5+, respectively. (c) Imaged agarose gel showing photocleavage of pBluescript plasmid in the absence of molecular oxygen by [(bpy)2Ru(dpp)RhCl2(dpp)Ru(bpy)2](PF6)5. Lane 1 is the λ molecular weight standard, lane 2 is the control linearized DNA (cut with HindIII) with no metal present, lane 3 is the control circular DNA with no metal present, lane 4 is a 1:5 metal complex/base pair mixture of the plasmid with the metal complex incubated at 37° C. (4 h), and lane 5 is a 1:5 metal complex/base pair mixture of the plasmid with the metal complex photolyzed at 520±5 nm for 4 h. All gels used 0.8% agarose, 90 mM Tris, and 90 mM boric acid buffer (pH=8.2, ionic strength=0.0043 M calculated using the Henderson-Hasselbalch equation).
(§1) A, DNA Photocleavage of pUC18 using [{(bpy)2Os(dpp)}2RhCl2](PF6)5:Lane 1 is the λ molecular weight standard, Lane 2 is a plasmid control, Lane 3 is a 1:5 metal complex/base pair mixture of the plasmid with the metal complex incubated at 37° C. for 20 minutes, Lane 4 is a 1:5 metal complex/base pair mixture of the plasmid with the metal complex photolyzed at >475 nm for 20 minutes.
C, DNA Photocleavage of pUC18 using [{(tpy)RuCl(bpm)}2RhCl2](PF6)3:Lane 1 is the λ molecular weight standard, Lane 2 is a plasmid control, Lane 3 is the plasmid alone photolyzed λ>475 nm for 15 mins, Lane 4 is a 1:5 metal complex/base pair mixture of the plasmid with the metal complex incubated at 37° C. for 15 minutes, Lane 5 is a 1:5 metal complex/base pair mixture of the plasmid with the metal complex photolyzed at >475 nm for 15 minutes.
pUC18 and pBluescript were used to probe pbotocleavage of DNA by gel electrophoresis.^14,26,41,42 pUC18 plasmid is 2686 bp (Bayou Biolabs). Irradiation used a 1000 W xenon arc lamp, a water IR filter, and a 475 nm cut off filter. Solutions were 3.5 μM in metal complex and 6.9 mM in phosphate buffer (pH=7) and allowed for ionic association of the cationic metal complexes with DNA. Dexoygenation was accomplished by bubbling with Ar for 30 min prior to the photolysis of the samples in an airtight cell blanketed with Ar.
The photocleavage of DNA by [{(bpy)2Ru(dpp)}2RhCl2]^5+ but not the monometallic ruthenium synthon illustrates the role of the supramolecular architecture, including Rh, on the desired photoreactivity. The cleavage product migrates slightly slower through the gel than native nicked plasmid, and similar results have been observed by Turro.^14 […]

[2] = test system: Vero cells; assay: Photoinduced inhibition of Vero cell replication; type: cell-based
Description: Photoinduced inhibition of Vero cell replication by the supramolecular complex [{(bpy)2Ru(dpp)}2RhCl2](PF6)5 was investigated. All experiments were carried out with 0.5 mg/mL of [{(bpy)2Ru(dpp)}2RhCl2](PF6)5 in MEM media, and the results are shown in FIG. 11A. This cell line normally replicates once each 24 hours.
The concentration dependence of photoinduced inhibition of cell replication by the supramolecular complex [{(bpy)2Ru(dpp)}2RhCl2]Cl5 is shown in FIG. 11B. […] This is likely due to photoinduced death of the irradiated cells.

[3] = test system: pBluescript plasmid; assay: Photocleavage of pBluescript plasmid DNA assayed by agarose gel electrophoresis; type: biochemical
Description: FIG. 10A-C. […] Lane 1 λ molecular weight standard, lanes 2 and 3 plasmid controls, lanes 4 and 6 plasmid incubated at 37° C. […] (b) Lanes 1 and 2 plasmid controls, lanes 3 and 5 plasmid incubated at 37° C. […] Lane 1 is the λ molecular weight standard, lane 2 is the control linearized DNA (cut with HindIII) with no metal present, lane 3 is the control circular DNA with no metal present, lane 4 is a 1:5 metal complex/base pair mixture of the plasmid with the metal complex incubated at 37° C. (4 h), and lane 5 is a 1:5 metal complex/base pair mixture of the plasmid with the metal complex photolyzed at 520±5 nm for 4 h. All gels used 0.8% agarose, 90 mM Tris, and 90 mM boric acid buffer (pH=8.2, ionic strength=0.0043 M calculated using the Henderson-Hasselbalch equation).
as §1, with “B,” for “A,”, “pBluescript” for “pUC18”, “[{(tpy)RuCl(dpp)}2RhCl2](PF6)3:Lane” for “[{(bpy)2Os(dpp)}2RhCl2](PF6)5:Lane”
pUC18 and pBluescript were used to probe pbotocleavage of DNA by gel electrophoresis.^14,26,41,42 pUC18 plasmid is 2686 bp (Bayou Biolabs). Irradiation used a 1000 W xenon arc lamp, a water IR filter, and a 475 nm cut off filter. […]

F[P-](F)(F)(F)(F)F.F[P-](F)(F)(F)(F)F.F[P-](F)(F)(F)(F)F.F[P-](F)(F)(F)(F)F.F[P-](F)(F)(F)(F)F.[Cl-].[Cl-].[Os+2].[Os+2].[Rh+3].c1ccc(-c2ccccn2)nc1.c1ccc(-c2ccccn2)nc1.c1ccc(-c2ccccn2)nc1.c1ccc(-c2ccccn2)nc1.c1ccc(-c2nccnc2-c2ccccn2)nc1.c1ccc(-c2nccnc2-c2ccccn2)nc1 [[{(bpy)2Os(dpp)}2RhCl2](PF6)5, [(2,2′-bipyridine)2Os(2,3-bis(2-pyridyl)pyrazine)RhCl2(2,3-bis(2-pyridyl)pyrazine)Os(2,2′-bipyridine)2](PF6)5]
DNA photocleavage ([1]; photolyzed at >475 nm for 20 minutes, 1:5 metal complex/base pair (FIG. 12A)): efficiently cleave DNA

F[P-](F)(F)(F)(F)F.F[P-](F)(F)(F)(F)F.F[P-](F)(F)(F)(F)F.F[P-](F)(F)(F)(F)F.F[P-](F)(F)(F)(F)F.[Cl-].[Cl-].[Rh+3].[Ru+2].[Ru+2].c1ccc(-c2ccccn2)nc1.c1ccc(-c2ccccn2)nc1.c1ccc(-c2ccccn2)nc1.c1ccc(-c2ccccn2)nc1.c1ccc(-c2nccnc2-c2ccccn2)nc1.c1ccc(-c2nccnc2-c2ccccn2)nc1 [[{(bpy)2Ru(dpp)}2RhCl2](PF6)5]
Toxicity to cells in the dark ([2]; Vero cells, no illumination, 0.5 mg/mL): not toxic to cells in the dark
Vero cell replication, complex alone ([2]; incubated in the dark, without illumination, MEM media (FIG. 11A)): did not impact replication
Photoinduced inhibition of Vero cell replication ([2]; photolysis at λ>475 nm after incubation with 0.5 mg/mL complex in MEM media (FIG. 11A)): greatly inhibits cell replication
DNA photocleavage ([3]; presence of molecular oxygen): also observed in the presence of molecular oxygen
DNA cleavage without irradiation ([1]; incubated at 37° C. for 2 h, 1:5 metal complex/base pair): the plasmid DNA is not cleaved
DNA photocleavage (supercoiled to nicked form) ([1]; irradiated λ≧475 nm for 10 min, absence of molecular oxygen, 1:5 metal complex/base pair, 3.5 μM complex, phosphate buffer pH 7): conversion of the supercoiled DNA to the nicked form is observed
DNA photocleavage ([1]; irradiated λ≧475 nm, presence of molecular oxygen): also observed in the presence of molecular oxygen

F[P-](F)(F)(F)(F)F.F[P-](F)(F)(F)(F)F.F[P-](F)(F)(F)(F)F.[Cl-].[Cl-].[Cl-].[Cl-].[Rh+3].[Ru+2].[Ru+2].c1ccc(-c2cccc(-c3ccccn3)n2)nc1.c1ccc(-c2cccc(-c3ccccn3)n2)nc1.c1ccc(-c2nccnc2-c2ccccn2)nc1.c1ccc(-c2nccnc2-c2ccccn2)nc1 [[{(tpy)RuCl(dpp)}2RhCl2](PF6)3, [(2,2′:6′,2″-terpyridine) RuCl(2,3-bis(2-pyridyl)pyrazine)RhCl2(2,3-bis(2-pyridyl)pyrazine)RuCl(2,2′:6′,2″-terpyridine)](PF6)3]
DNA photocleavage ([3]; photolyzed at >475 nm for 20 minutes, 1:5 metal complex/base pair (FIG. 12B)): efficiently cleave DNA

[(2,2′:6′,2″-terpyridine)RuCl(2,2′-bipyridimidine)RhCl2(2,2′-bipyridimidine)RuCl(2,2′:6′,2″-terpyridine)](PF6)3 [[{(tpy)RuCl(bpm)}2RhCl2](PF6)3]
DNA photocleavage ([1]; photolyzed at >475 nm for 15 minutes, 1:5 metal complex/base pair (FIG. 12C)): efficiently cleave DNA

Reference: patent US7612057B2, “Supramolecular complexes as photoactivated DNA cleavage agents” (Virginia Tech Intellectual Properties, Inc., priority 2002, dated 2009)
